The text below walks through data of PubChem BioAssay (NCI).

Experiment in all cases: NCI-60 cell line screen, 48 h
Assay [1] deals with SF-539 CNS.
The subject of assay [2] is SF-295 CNS.
In assay [3] the test system is NCI-H226 lung.
Assay [4] concerns PC-3 prostate.
The test system of assay [5] is HCT-116 colon.
Assay [6] deals with LOX IMVI melanoma.
Assay [7] relates to OVCAR-5 ovarian.
The subject of assay [8] is UACC-257 melanoma.
For assay [9], the system named is U251 CNS.
Assay [10] deals with HOP-92 NSCLC.

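Protocol summary: plate cells (96-well), add compound at 5 concentrations, incubate 48 h, interpolate endpoints linearly. The concentration for 50% growth inhibition is given as GI50. TGI denotes the concentration required for complete inhibition of growth.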

For the compound `O=C(O)/C(Cc1ccnc2ccccc12)=N\O`, the TGI in assay [1], in [2], in assay [3], in [4], in assay [5] and in assay [6] was above 100 µM in each case. In addition, the TGI in assay [7], in [8], in [9] and in assay [10] was above 100 µM each time.
For the compound `COc1cc(C2C3=C(COC3=O)N(CCO)c3cc4c(cc32)OCCO4)cc(OC)c1OC` (configuration not stated), the GI50 was 0.147 µM in [1]; 0.15 µM in assay [2]; 4.48 µM in assay [3]; 0.185 µM in assay [4]; 0.178 µM in assay [5]; 0.286 µM in assay [6]. Also, the GI50 was 2.09 µM in assay [7], 0.384 µM in assay [8], 0.226 µM in assay [9] and 0.111 µM in assay [10]. For the same compound, the TGI was 4.66 µM in [2]; above 50 µM in assay [3]; above 50 µM in [4]; above 50 µM in [6]; above 50 µM in assay [7]; above 50 µM in assay [8]. Also, the TGI in assay [9] and in [10] was above 50 µM throughout.
`O=C1/C(=C/c2ccc(F)cc2)CN(C(=O)CCN2CCC(=NO)CC2)C/C1=C\c1ccc(F)cc1`: the GI50 in assay [1] was 1.95 µM; in assay [2], 2.06 µM; in assay [3], 2.55 µM; in assay [4], 0.855 µM; in assay [5], 0.413 µM; in [6] it was 0.409 µM. Moreover, the GI50 in [7] is 1.83 µM; in assay [8] it was 2.4 µM; in assay [9] it was 0.63 µM; in [10], 3.21 µM. The TGI in assay [1] was determined as 4.07 µM; in assay [2] it was 4.72 µM; in assay [3] it was 8.51 µM; in assay [4], 2.97 µM; in assay [5], 0.861 µM; in [6], 0.922 µM. Moreover, the TGI in assay [7] is 4.11 µM; in assay [8], 7.05 µM; in assay [9], 2.09 µM; in assay [10], 7.39 µM.
Consider `CS(=O)(=O)OCCCNCCCOS(C)(=O)=O`, for which the TGI in assay [1] came out at 5170 µM; in assay [2], 4760 µM; in assay [3], 5860 µM; in assay [4] it was 5620 µM; in assay [5], 5670 µM; in assay [6] it was 3920 µM. Also, the TGI worked out at 6290 µM in assay [7], 5310 µM in assay [8], 5460 µM in assay [9] and 4400 µM in assay [10].
Turning to `CC(=O)N1CCN(CCNC(=O)n2cc(-c3ccncc3)c(-c3cc(O)cc(Cl)c3)n2)CC1`, the GI50 is 5.73 µM in assay [1]; 10.5 µM in assay [2]; 16.7 µM in assay [3]; 13.6 µM in assay [4]; 5.47 µM in assay [5]; 6.85 µM in assay [6]. The GI50 in assay [7] is 23.8 µM; in assay [8], 1.85 µM; in [9], 10.9 µM; in assay [10] it was 5.93 µM. Moreover, the TGI came out at 21.1 µM in assay [1]; 25.7 µM in assay [2]; 40.5 µM in [3]; 57.6 µM in assay [4]; 18.8 µM in [5]; 22.7 µM in assay [6]. In addition, the TGI in assay [7] was 63.2 µM; in assay [8] it was 4.61 µM; in [9], 26.1 µM; in assay [10], 24.3 µM.
On to `O=C(NNc1ccc(Cl)cc1)C1CCC(CNS(=O)(=O)c2ccccc2Cl)CC1` (configuration not stated), for which the GI50 in assay [1] is 17.4 µM; in assay [2] it was 4.58 µM; in [3] it was 20.2 µM; in assay [4] it was 3.69 µM; in assay [7], 17.3 µM; in assay [8], 17.1 µM. In addition, the GI50 in assay [10] is 17.3 µM. Also, the TGI in assay [1] is 45.1 µM; in assay [2] it was 68.5 µM; in assay [3], above 100 µM; in [4], 34.7 µM; in [7] it was 55 µM; in [8], 59.7 µM. This compound showed a TGI in [10] above 100 µM.
For `CCN(CC)CCCC(C)Nc1cc(-c2cccc(OC(F)(F)F)c2)nc2ccc(N3CCCC3)cc12` (configuration not stated), the GI50 in assay [1] was 0.0382 µM; in assay [2], 0.0404 µM; in [3] it was 0.189 µM; in [4] it was 0.28 µM; in assay [5] it was 0.0371 µM; in assay [6], 0.0638 µM. The GI50 in assay [7] is 0.348 µM; in assay [8], 0.97 µM; in assay [9] it was 0.0473 µM; in assay [10], 0.582 µM. The TGI in assay [1] is 0.508 µM; in assay [2] it was 11.9 µM; in [3], 9.57 µM; in [4] it was above 49.5 µM; in assay [5] it was 13.7 µM; in [6], 14.6 µM. Further, the TGI was above 100 µM in [7], 47.7 µM in assay [8], 21.9 µM in assay [9] and 13.4 µM in assay [10].
With `COc1ccc(/C=C/c2c(C(=O)/C=C/c3ccc(C(F)(F)F)cc3)c(C)nc3ccccc23)cc1`, the GI50 was 1.85 µM in [1]; 1.71 µM in assay [2]; 1.85 µM in [3]; 1.83 µM in [4]; 0.414 µM in assay [5]; 1.37 µM in assay [6]. For the same compound, the GI50 in [7] was 2.13 µM; in [8], 2.09 µM; in [9] it was 1.53 µM; in assay [10] it was 1.62 µM. For the same compound, the TGI stood at 3.34 µM in assay [1]; 3.28 µM in assay [2]; 4.01 µM in [3]; 5.58 µM in assay [4]; 1.97 µM in assay [5]; 2.74 µM in assay [6]. The TGI in assay [7] was 5.53 µM; in [8], 4.52 µM; in assay [9], 3.28 µM; in assay [10] it was 3.59 µM.
Turning to `C1CN(c2nnc(N3CCC3)nn2)C1`, the TGI in assay [1] is 77.6 µM; in [2], 69.6 µM; in assay [3], above 100 µM; in assay [4] it was above 60 µM; in [5], above 100 µM; in assay [6], 36.1 µM. The TGI was above 46.4 µM in assay [7], 49.4 µM in [8], above 92.6 µM in assay [9] and above 100 µM in [10].
